Non-standard residues stand in square brackets, D forms with d. No end group written: not given here. NMeL = CN[C@@H](CC(C)C)C(=O)O
How the values were obtained:
mouse spleen cells = assay: 24-hour dose response: IL-6 release from mouse spleen cells (ELISA of supernatants); format: cell-based; details: for IL-6: 24 hrs incubation, mouse spleen cells, ± SD
Procedure: (§1) Salt forms of EP67 (SEQ ID NO:2) generated using the above procedures were incubated at varying concentrations with murine splenocytes over time.
A 24-hour dose response was investigated by incubating mouse spleen cells for 24 hrs with varying concentrations of the EP67 salts. Supernatants were collected and assayed for IL-6 by ELISA.

mice spleen cells = assay: IL-6 kinetics: IL-6 release over time from mice spleen cells; format: cell-based, mouse; details: for IL-6: 100 μg/mL, mice spleen cells, ± SD
Procedure: as §1
Next, IL-6 kinetics were investigated by incubating mice spleen cells with 100 μg/mL of each salt form, and the release was examined over time.

Substance	IL-6 (mouse spleen cells; 0.1 μg/mL activator)	IL-6 (mouse spleen cells; 1.0 μg/mL activator)	IL-6 (mouse spleen cells; 10 μg/mL activator)	IL-6 (mouse spleen cells; 100 μg/mL activator)	IL-6 (mice spleen cells; time collected 6 hr)	IL-6 (mice spleen cells; time collected 24 hr)	IL-6 (mice spleen cells; time collected 48 hr)	IL-6 (mice spleen cells; time collected 72 hr)	total amount of cytokine (IL-6) released from murine splenocytes, compared with other salt forms (mouse spleen cells; varying concentrations, murine splenocytes)	kinetics of IL-6 release (time to maximal release), compared with other salt forms (mice spleen cells; murine splenocytes, over time)
EP67•TFA: TFA salt form of EP67 (SEQ ID NO:2), comparator salt (YSFKDMP[NMeL][dA]R-OH; also: TFA salt)	178 ± 1 pg/mL	185 ± 2 pg/mL	308 ± 7 pg/mL	803 ± 6 pg/mL	55 ± 1 pg/mL	803 ± 6 pg/mL	442 ± 13 pg/mL	75 ± 6 pg/mL		
EP67•OAc^−: acetate salt form of EP67 (SEQ ID NO:2), comparator salt (YSFKDMP[NMeL][dA]R-OH; also: acetate salt)	188 ± 1 pg/mL	325 ± 23 pg/mL	225 ± 20 pg/mL	780 ± 9 pg/mL	188 ± 1 pg/mL	325 ± 23 pg/mL	900 ± 17 pg/mL			
EP67•HCl: HCl salt form of EP67 (SEQ ID NO:2), a response selective C-terminal analog of C5a (YSFKDMP[NMeL][dA]R-OH; also: HCl salt)	176 ± 3 pg/mL	225 ± 1 pg/mL	738 ± 5 pg/mL	1163 ± 2 pg/mL	47 ± 1 pg/mL	1163 ± 2 pg/mL	923 ± 6 pg/mL	200 ± 11 pg/mL	outperformed the acetate (OAc) and, particularly, the TEA salt forms	maximal IL-6 release quicker than the other two salt forms

Source: patent US12552848B2, “Hydrochloride salts of C5a receptor agonist peptides” (Board of Regents of the University of Nebraska, priority 2017, dated 2026)
